Measured values published in patent US8933102B2, “Pyrrolidine derived β3 adrenergic receptor agonists” (Merck Sharp & Dohme Corp., priority 2010, dated 2015).

Biological target: T1, human β3 adrenergic receptor (Homo sapiens, UniProt P13945)
T1 construct: expressed in transfected cells; host or cells: Chinese hamster ovary (CHO) cells, stably transfected
Assay: Beta-3 agonist in vitro functional assay (cAMP production, LANCE, CHO cells stably transfected with cloned β3 receptor)
Assay type: cell-based
Details: cAMP production in CHO cells expressing human β3 AR; ranges as class symbols; read-out: Human β3 agonist functional activity
Procedure: Functional Assay: cAMP production in response to ligand is measured according to Barton, et al. (1991, Agonist-induced desensitization of D2 dopamine receptors in human Y-79 retinoblastoma cells. Mol. Pharmacol. […]) modified as follows. cAMP production is measured using a homogenous time-resolved fluorescence resonance energy transfer immunoassay (LANCE™, Perkin Elmer) according to the manufacture's instructions. Chinese hamster ovary (CHO) cells, stably transfected with the cloned β-adrenergic receptor (β1, β2 or β3) are harvested after 3 days of subculturing. Harvesting of cells is done with Enzyme-free Dissociation Media (Specialty Media). Cells are then counted and resuspended in assay buffer (Hank's Balanced salt solution supplemented with 5 mM HEPES, […]) containing a phosphodiesterase inhibitor (IBMX, 0.6 mM). The reaction is initiated by mixing 6,000 cells in 6 μL with 6 μL Alexa Fluor labeled cAMP antibody (LANCE™ kit) which is then added to an assay well containing 12 μL of compound (diluted in assay buffer to 2× final concentration). The reaction proceeds for 30 minutes at RT and is terminated by the addition of 24 ul detection buffer (LANCE™ kit). The assay plate is then incubated for 1 h at RT and time-resolved fluorescence measured on a Perkin Elmer Envision reader or equivalent. The unknown cAMP level is determined by comparing fluorescence levels to a cAMP standard curve.
The non-selective, full agonist 13-adrenergic ligand isoproterenol is used at all three receptors to determine maximal stimulation. The human β3 adrenergic receptor (AR) selective ligand (S)—N-[4-[2-[[2-hydroxy-3-(4-hydroxyphenoxy)propyl]amino]ethyl]-phenyl]-4-iodobenzenesulfonamide is used as a control in all assays. Isoproterenol is titrated at a final concentration in the assay of 10^-10 M to 10-5 and the selective ligand (S)—N-[4-[2-[[2-hydroxy-3-(4-hydroxyphenoxy)propyl]amino]ethyl]phenyl]-4-iodobenzenesulfonamide is titrated at the β3 receptor at concentration of 10^-10 M to 10^-5 M. Unknown ligands are titrated at all 3 β-adrenergic receptor subtypes at a final concentration in the assay of 10^-10 M to 10^-5 M to determine the EC50. The EC50 is defined as the concentration of compound that gives 50% activation of its own maximum. Data are analyzed using Microsoft Excel and Graphpad Prism or an internally developed data analysis software package.

T1 sequence (P13945 whole entry): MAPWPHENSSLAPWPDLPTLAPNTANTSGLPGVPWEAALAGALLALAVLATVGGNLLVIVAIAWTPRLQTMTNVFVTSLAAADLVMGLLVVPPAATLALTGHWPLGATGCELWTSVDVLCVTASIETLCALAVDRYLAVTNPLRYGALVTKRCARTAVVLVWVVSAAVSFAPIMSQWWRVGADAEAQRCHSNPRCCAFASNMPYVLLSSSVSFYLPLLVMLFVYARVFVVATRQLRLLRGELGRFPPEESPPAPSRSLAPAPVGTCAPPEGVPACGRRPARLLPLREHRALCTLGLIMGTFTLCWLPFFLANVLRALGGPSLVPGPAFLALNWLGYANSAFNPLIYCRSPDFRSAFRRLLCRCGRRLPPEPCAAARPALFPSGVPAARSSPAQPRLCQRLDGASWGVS

SMILES | EC50
O=C(c1ccc(C[C@@H]2CC[C@H]([C@H](O)COc3ccccc3)N2)cc1)N1CCC(n2nccn2)CC1 [Example 2] | 1 to 10 nM
O=C(c1ccc(C[C@@H]2CC[C@H]([C@H](O)COc3ccccc3)N2)cc1)N1CCC(n2ccnn2)CC1 [Example 3] | 11 to 100 nM
Cn1nnnc1C1CCN(C(=O)c2ccc(C[C@@H]3CC[C@H]([C@H](O)COc4ccccc4)N3)cc2)CC1 [Example 4] | < 1 nM
O=C(c1ccc(C[C@@H]2CC[C@H]([C@H](O)COc3ccccc3)N2)cc1)N1C[C@@H]2[C@H](C1)[C@H]2n1cnnn1 [Example 5] | < 1 nM
O=C(c1ccc(C[C@@H]2CC[C@H]([C@H](O)COc3ccccc3)N2)cc1)N1CCN(Cc2ccncn2)CC1 [Example 6] | 1 to 10 nM

Same assay, conditions: cAMP production in CHO cells expressing human β3 AR; read-out: human Beta-3 agonist functional activity

SMILES | EC50
O=C(c1ccc(C[C@@H]2CC[C@H]([C@H](O)COc3ccccc3)N2)cc1)N1CCC(n2cccn2)CC1 [Example 1] | 1 to 10 nM
